Each structure is given as a SMILES string.

Among the data in paper PMC13476077, “Systematic comparison of temporal hepatotoxicant-induced gene network responses across 3 liver test systems” (Toxicological Sciences, 2026) are Vss values, retold here.

A short description of the data set: Pharmacokinetic properties from the literature. The following applies: Minimal PBPK model; Derived using WinNonLin, ref Huang et al. (1986). The data set is classed as in vivo. The source says: Compound-specific physicochemical properties (e.g., pKa, fraction unbound in plasma, etc.) are detailed in Table S1B and were used to parameterize each model.

With `CC(=O)N1CCN(c2ccc(OCC3COC(Cn4ccnc4)(c4ccc(Cl)cc4Cl)O3)cc2)CC1` (stereo not shown) [Ketoconazole], the Vss is reported as 0.345 L/kg.
